Like-named read-outs stand apart in the source and are kept apart here.
Legend:
Format in all cases: cell-based
[1] = test system: HCV 2a Rluc cells (NS5A chimeric genotype 2a JFH-1 replicon with genotype 2a J6 strain NS5A gene, M31 present); assay: HCV replicon reporter assay, genotype 2a J6 (M31 present); conditions: Hepatitis C virus, read-out: 2a J6
Procedure, shortened: (§1)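 Renilla luciferase HCV replicon cells: dicistronic 1b Con1, 1a H77 or 2a JFH-1 replicons, or a JFH-1 chimera carrying J6 NS5A (M31 present). Compound in DMSO serial dilutions, 72 h incubation, then lysis and luciferase read. EC50 by non-linear regression.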

[2] = test system: Q30R in genotype 1a NS5A, 1a Rluc replicon transfected into Huh-7 cured-51 cells; assay: HCV replicon assay, resistance mutant 1a Q30R; conditions: Hepatitis C virus, Huh-7, read-out: 1a Q30R
Procedure, shortened: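 Cells were Huh-7 cured-51 transfected with replicon RNA of a genotype 1a H77 RLuc replicon carrying site-directed Q30R in NS5A.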

[3] = test system: HCV 4a Rluc cells (NS5A chimeric genotype 1b Con1 replicon with genotype 4a NS5A gene); assay: microbe, parasite or virus in culture; conditions: Hepatitis C virus, read-out: 4a
Procedure, shortened: (§2)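 Replicon cells stably carrying the listed RLuc-encoding dicistronic replicons were seeded and treated with DMSO serial dilutions of compound (10 mM stocks) diluted into culture medium. After 72 h, cells were lysed and Renilla luciferase activity measured. EC50 was derived by non-linear regression.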

[4] = test system: HCV 1b RLuc cells (dicistronic genotype 1b Con1 replicon, RLuc reporter); assay: microbe, parasite or virus in culture; conditions: Hepatitis C virus, read-out: 1b (nM)
Procedure, shortened: as §1

[5] = test system: HCV 3a RLuc cells (NS5A chimeric genotype 1b Con1 replicon with consensus genotype 3a NS5A gene); assay: microbe, parasite or virus in culture; conditions: Hepatitis C virus
Procedure, shortened: as §2

[6] = test system: HCV 1a RLuc cells (dicistronic genotype 1a H77 replicon, RLuc reporter); assay: microbe, parasite or virus in culture; conditions: Hepatitis C virus, read-out: 1a
Procedure, shortened: as §1

[7] = test system: HCV 2a JFH-1 Rluc cells (dicistronic genotype 2a JFH-1 replicon, RLuc reporter); assay: microbe, parasite or virus in culture; conditions: Hepatitis C virus, read-out: 2a JFH
Procedure, shortened: as §1

[8] = test system: HCV 2b Rluc cells (NS5A chimeric genotype 2a JFH-1 replicon with genotype 2b MD2b-1 NS5A gene, M31 present); assay: microbe, parasite or virus in culture; conditions: Hepatitis C virus, read-out: 2b
Procedure, shortened: as §2

[9] = read-out: 3a, genotype 3a replicon
[10] = read-out: 3a, genotype 3a NS5A chimeric replicon
[11] = genotype 2a JFH-1 RLuc replicon
[12] = read-out: 3a, Table 1, genotype 3a NS5A chimeric replicon
[13] = 72 h, Table 1, genotype 1a H77 replicon, 72 hours
[14] = 72 h, Table 1, genotype 2a JFH-1 replicon, 72 hours

Structure (SMILES) | EC50 [1] [nM] | EC50 [2] [nM] | EC50 [3] [nM] | EC50 [4] [nM] | EC50 [5, 9] [nM] | EC50 ([6]; genotype 1a replicon) [nM] | EC50 ([7]; genotype 2a JFH-1 replicon) [nM] | EC50 [8] [nM] | EC50 [5, 10] [nM] | EC50 ([6]; genotype 1a H77 RLuc replicon) [nM] | EC50 [7, 11] [nM] | EC50 ([4]; 72 h) [nM] | EC50 ([5]; read-out: 3a, Table 2, genotype 3a NS5A chimeric replicon) [nM] | EC50 ([6]; 72 h, Table 2, genotype 1a H77 replicon, 72 hours) [nM] | EC50 ([7]; 72 h, Table 2, genotype 2a JFH-1 replicon, 72 hours) [nM] | EC50 [5, 12] [nM] | EC50 [6, 13] [nM] | EC50 [7, 14] [nM]
COC[C@H]1C[C@@H](c2nc3ccc4cc(-c5ccc6c(ccc7nc([C@@H]8CCCN8C(=O)[C@H](NC(=O)OC)c8ccccc8)[nH]c76)c5)ccc4c3[nH]2)N(C(=O)[C@@H](NC(=O)OC)C(C)C)C1 [Example 454] | 0.001 to 0.999 | 0.001 to 0.999 | 0.001 to 0.99 | 0.028 | 0.001 to 0.99 | 0.001 to 0.999 | 0.001 to 0.999 | 0.001 to 0.999 |  |  |  |  |  |  |  |  |  | 
COC[C@@H]1C[C@@H](c2nc3ccc4cc(-c5ccc6c(ccc7nc([C@@H]8CCCN8C(=O)[C@@H](NC(=O)OC)C(C)C)[nH]c76)c5)ccc4c3[nH]2)N(C(=O)[C@@H](NC(=O)OC)C(C)C)C1 [Example 397] | 0.001 to 0.999 | 0.001 to 0.999 | 0.001 to 0.99 | 0.017 | 0.001 to 0.99 | 0.001 to 0.999 | 0.001 to 0.999 | 0.001 to 0.999 |  |  |  |  |  |  |  |  |  | 
COC(=O)N[C@H](C(=O)N1[C@@H](C)CC[C@H]1c1ncc(-c2ccc3c(c2)COc2cc4c(ccc5nc([C@@H]6CC[C@H](C)N6C(=O)[C@@H](NC(=O)OC)C(C)C)[nH]c54)cc2-3)[nH]1)C(C)C [Example 585] | 0.001 to 0.999 | 0.001 to 0.999 | 0.001 to 0.99 | 0.009 |  |  |  | 0.001 to 0.999 | 0.001 to 0.99 | 0.001 to 0.999 | 0.001 to 0.999 |  |  |  |  |  |  | 
COC(=O)N[C@H](C(=O)N1CCC[C@H]1c1nc2ccc3cc(-c4ccc5c(ccc6nc([C@@H]7CC8(CN7C(=O)[C@H](NC(=O)OC)c7ccccc7)OCCO8)[nH]c65)c4)ccc3c2[nH]1)C(C)C [Example 317] | 0.001 to 0.999 | 0.001 to 0.999 | 0.001 to 0.99 | 0.023 | 0.001 to 0.99 | 0.001 to 0.999 | 0.001 to 0.999 | 0.001 to 0.999 |  |  |  |  |  |  |  |  |  | 
CC#Cc1cc2nc([C@@H]3CCCN3C(=O)[C@@H](NC(=O)OC)C(C)C)[nH]c2c2ccc(-c3ccc4c(ccc5nc([C@@H]6C[C@H](COC)CN6C(=O)[C@H](NC(=O)OC)c6ccccc6)[nH]c54)c3)cc12 [Example 581] | 0.001 to 0.999 | 0.001 to 0.999 | 0.001 to 0.99 | 0.007 |  |  |  | 0.001 to 0.999 | 0.001 to 0.99 | 0.001 to 0.999 | 0.001 to 0.999 |  |  |  |  |  |  | 
COC(=O)N[C@H](C(=O)N1CCC[C@H]1c1nc2ccc3cc(-c4ccc5c(ccc6nc([C@@H]7[C@H]8CC[C@H](C8)N7C(=O)[C@@H](NC(=O)OC)C(C)C)[nH]c65)c4)ccc3c2[nH]1)C(C)C [Example 63] | 1 to 44 | 1 to 44 | 0.001 to 0.99 |  |  |  |  | > 44 |  |  |  | 0.019 | 0.001 to 0.99 | 0.001 to 0.999 | 0.001 to 0.999 |  |  | 
COC[C@H]1C[C@@H](c2ncc(-c3ccc(-c4ccc(-c5cnc([C@@H]6C[C@H]7C[C@H]7N6C(=O)[C@@H](NC(=O)OC)C(C)C)[nH]5)cc4)cc3)[nH]2)N(C(=O)[C@H](NC(=O)C2CC2)c2ccccc2)C1 [Example 527] | 0.001 to 0.999 | 0.001 to 0.999 | 0.001 to 0.99 | 0.022 |  |  |  | 0.001 to 0.999 | 0.001 to 0.99 | 0.001 to 0.999 | 0.001 to 0.999 |  |  |  |  |  |  | 
COC[C@H]1C[C@@H](c2nc3ccc4cc5c(cc4c3[nH]2)OCc2cc(-c3cnc([C@@H]4CCCN4C(=O)[C@@H](NC(=O)OC)C(C)C)[nH]3)ccc2-5)N(C(=O)[C@H](N)c2ccccc2)C1 [Example 571] | 0.001 to 0.999 | 0.001 to 0.999 | 0.001 to 0.99 | 0.114 |  |  |  | 0.001 to 0.999 | 0.001 to 0.99 | 0.001 to 0.999 | 0.001 to 0.999 |  |  |  |  |  |  | 
COC[C@H]1C[C@@H](c2nc3ccc4cc(-c5ccc6c(ccc7nc([C@@H]8C[C@H]9C[C@H]9N8C(=O)[C@@H](NC(=O)OC)C(C)C)[nH]c76)c5)ccc4c3[nH]2)N(C(=O)[C@H](NC(=O)OC)c2ccccc2)C1 [Example 472] | 0.001 to 0.999 | 0.001 to 0.999 | 0.001 to 0.99 | 0.01 | 0.001 to 0.99 | 0.001 to 0.999 | 0.001 to 0.999 | 0.001 to 0.999 |  |  |  |  |  |  |  |  |  | 
COC(=O)N[C@H](C(=O)N1[C@H](c2nc3ccc4cc5c(cc4c3[nH]2)OCc2cc(-c3cnc(C4CCCN4C(=O)[C@@H](NC(=O)OC)C4CCOCC4)[nH]3)ccc2-5)C[C@@H]2CCC[C@@H]21)C(C)C (stereo partly shown) [Example 575] | 0.001 to 0.999 | 0.001 to 0.999 | 0.001 to 0.99 | 0.029 |  |  |  | 0.001 to 0.999 | 0.001 to 0.99 | 0.001 to 0.999 | 0.001 to 0.999 |  |  |  |  |  |  | 
COC[C@H]1C[C@@H](c2nc3ccc4cc5c(cc4c3[nH]2)OCc2cc(-c3cnc([C@@H]4CCCN4C(=O)[C@@H](NC(=O)OC)C(C)C)[nH]3)ccc2-5)N(C(=O)[C@@H](NC(=O)OC)C(C)C)C1 [Example 495] | 0.001 to 0.999 | 0.001 to 0.999 | 0.001 to 0.99 | 0.026 |  |  |  | 0.001 to 0.999 | 0.001 to 0.99 | 0.001 to 0.999 | 0.001 to 0.999 |  |  |  |  |  |  | 
COC(=O)N[C@@H](C(=O)N1CCC[C@H]1c1ncc(-c2cc3c4c(c2)OCc2cc(-c5cnc([C@@H]6CCCN6C(=O)[C@H](NC(=O)OC)c6ccccc6)[nH]5)cc(c2-4)OC3)[nH]1)c1ccccc1 [Example 25d] | 0.001 to 0.999 | 0.001 to 0.999 | 0.001 to 0.99 |  |  |  |  | 0.001 to 0.999 |  |  |  | 0.048 |  |  |  | 0.001 to 0.99 | 0.001 to 0.999 | 0.001 to 0.999
COC(=O)N[C@H](C(=O)N1CCC[C@H]1c1nc2ccc3cc4c(cc3c2[nH]1)OCc1cc(-c2cnc([C@@H]3CCCN3C(=O)[C@H](NC(=O)OC)c3ccccc3)[nH]2)ccc1-4)C(C)C [Example 426] | 0.001 to 0.999 | 0.001 to 0.999 | 0.001 to 0.99 | 0.033 | 0.001 to 0.99 | 0.001 to 0.999 | 0.001 to 0.999 | 0.001 to 0.999 |  |  |  |  |  |  |  |  |  | 
COC(=O)N[C@H](C(=O)N1CCC[C@H]1c1ncc(-c2cc3c4c(c2)OCc2cc(-c5cnc([C@@H]6CCCN6C(=O)[C@H](NC(=O)OC)c6ccccc6)[nH]5)cc(c2-4)OC3)[nH]1)C(C)C [Example 25c] | 1 to 44 | 0.001 to 0.999 | 0.001 to 0.99 |  |  |  |  | 0.001 to 0.999 |  |  |  | 0.031 |  |  |  | 0.001 to 0.99 | 0.001 to 0.999 | 0.001 to 0.999
COC[C@H]1C[C@@H](c2nc3ccc4cc(-c5ccc6c(ccc7nc([C@@H]8C[C@H]9C[C@H]9N8C(=O)[C@@H](NC(=O)OC)C(C)C)[nH]c76)c5)ccc4c3[nH]2)N(C(=O)[C@H](NC(=O)C2CC2)c2ccccc2)C1 [Example 502] | 0.001 to 0.999 | 0.001 to 0.999 | 0.001 to 0.99 | 0.016 |  |  |  | 0.001 to 0.999 | 0.001 to 0.99 | 0.001 to 0.999 | 0.001 to 0.999 |  |  |  |  |  |  | 
COC[C@H]1C[C@@H](c2nc3ccc4cc(-c5ccc6c(ccc7nc([C@@H]8C[C@H]9C[C@H]9N8C(=O)[C@H](NC(=O)OC)c8ccccc8)[nH]c76)c5)ccc4c3[nH]2)N(C(=O)[C@@H](NC(=O)OC)C(C)C)C1 [Example 548] | 0.001 to 0.999 | 0.001 to 0.999 | 0.001 to 0.99 | 0.006 |  |  |  | 0.001 to 0.999 | 0.001 to 0.99 | 0.001 to 0.999 | 0.001 to 0.999 |  |  |  |  |  |  | 
COC[C@H]1C[C@@H](c2nc3ccc4cc(-c5ccc6c(ccc7nc([C@@H]8C[C@H](SCC(F)(F)F)CN8C(=O)[C@@H](NC(=O)OC)C(C)C)[nH]c76)c5)ccc4c3[nH]2)N(C(=O)[C@H](NC(=O)OC)c2ccccc2)C1 [Example 584] | 0.001 to 0.999 | 0.001 to 0.999 | 0.001 to 0.99 | 0.015 |  |  |  | 0.001 to 0.999 | 0.001 to 0.99 | 0.001 to 0.999 | 0.001 to 0.999 |  |  |  |  |  |  | 
